# Data as given in PMC9671962 (Communications Biology, 2022).
# “And” between values parts separate entries of the source, which are not always exact repeats. Identical values can stand only once.
# What was measured:
# [1] = tested on: NB-EBC1x; assay: Pre-clinical efficacy study, NB-EBC1x PDX; type: in vivo, mouse; settings: for EFS by AOC method / Tumor response (% growth from study initiation at ~ 200 mm3): single mouse; for Tumor Volume: NBEBC1 tumor re-challenge (24 MBq/kg/fraction x 4)
# Procedure: (§1) Patient demographics and genetic characteristics are listed in (Supplementary Tables 1, 2)[17]. The maximum tolerated dose (MTD) was determined to be 36 MBq/kg administered by intra-peritoneal injection twice weekly for a total of 4 dose fractions and this fractionated regimen was used in all studies (Supplementary Fig. 1)[18],[19]. […] Nine of 11 PDX models were MYCN amplified (Fig. 1b), which is a hallmark of high-risk neuroblastoma. Tumor response was measured as the maximum percent decrease in tumor volume after treatment and event-free survival (EFS) was measured by the area over the curve method with tumor events pre-defined by tumor growth exceeding 2 cm[3],[18].
# (§2) The use of 2 mice per arm was based on the previously reported statistical analysis. PDX tumors were implanted into the right flank of 5 to 6-weeks old female mice weighing about 20–25 grams. […] Two additional dose levels of 12, and 24 MBq/kg/fraction were assessed in a subset of models and were administered as stated above. In two models treated at the 24 MBq/kg/fraction dose level we re-challenged tumor response at the time of tumor progression with an additional 4 dose fractions at 24 MBq/kg/fraction given twice weekly. Doses were prepared in 500 µL total volume. An equal volume of saline was used for the vehicle group. Tumors were measured using a digital caliper at the initiation of the study and two times per week during the treatment period. Tumor volumes were calculated as volume = ([…]∗0.5236)/1000. Weights were obtained twice weekly and mice were monitored daily for signs of toxicity. […] Tumor response was assessed by best response defined as greatest reduction in tumor volume following the last dose and is presented as percent change in tumor volume. Event-free survival was determined by area over the curve method that calculates the time to tumor event, which was defined as tumors reaching or exceeding a size ≥ 2 cm^3.
# (§3) Animal studies were performed in female mice due to the lack of sex-related differences for [^211At]PTT tolerability from initial dose response studies performed in female and male mice. Female mice were chosen due to their underlying behavior towards other study subjects that reduced nonstudy-related causes for decreased wellness. Pre-clinical efficacy studies were performed through “single mouse testing” to more closely recapitulate a clinical trial. […] Number size for treatment groups was determined by model tumor growth reproducibility, which was previously shown to have less than 5% normal variation with at least two animals. Statistical tests for tumor response and event-free survival (EFS) were performed as a grouped analysis that included all tumor models treated at each respective dose level (n = 2 per model per dose level). Statistical differences between treatment groups for tumor response was performed by paired-model T-test that compared reduction in tumor volume for the 36 MBq/kg dose level vs. 24 MBq/kg or 12 MBq/kg. Event free survival was measured by area over the curve method to quantify time to event, which was set as tumor growth exceeding 2 cm[3],[19]. Differences in EFS were tested across all treated models for each respective dose level, and against untreated controls, by paired-model ANOVA analysis. Associations of drug target expression and response were performed by linear regression analysis of EFS and PARP1 mRNA expression. Genetic signatures were visually presented as a function of EFS and no statistical tests were applied. Blood and marrow toxicity studies were performed with n = 5 sample sizes and powered to detect >20% differences between untreated controls and treated animals. Results were tested for significance by one-way ANOVA comparison from untreated controls. Marrow colony formation assays were performed in replicates of 2 for each mouse subject, dependent on marrow isolation, and all replicates are included in final analyses. […]
# [2] = tested on: COG-N-415x; assay: Pre-clinical efficacy study, COG-N-415x PDX; type: in vivo; settings: single mouse
# Procedure: as §1, §2, §3
# [3] = NB-EBC1x, 24 MBq/kg/fraction x 4 fractions
# [4] = NB-EBC1x, 36 MBq/kg/fraction x 4 fractions
# [5] = 12 MBq/kg/fraction x 4 fractions
# [6] = 24 MBq/kg/fraction x 4 fractions
# [7] = 36 MBq/kg/fraction x 4 fractions
smiles,measurement,setting,value
"O=C1NCCn2c(-c3ccc([211At])cc3)nc3cccc1c32 [[^211At]PTT, Astatine-211-parthanatine]",EFS1 (initial treatment),"[1]; NB-EBC1x, 24 MBq/kg/fraction x 4, re-challenged mouse n = 1",45
same,EFS by AOC method,[1]; [3],58.4 days
same,Tumor response (% growth from study initiation at ~ 200 mm3),[1]; [3],-100%
same,EFS by AOC method,[1]; [4],90.4 days and 97.6 days and 90.485 days and 97.6925 days
same,Tumor response (% growth from study initiation at ~ 200 mm3),[1]; [4],-100%
same,EFS2 (re-challenge treatment),"[1]; NB-EBC1x, re-challenge 24 MBq/kg/fraction x 4 at tumor progression, progressing disease",47
same,Tumor Volume,[1]; week 0,0.17 cm3
same,Tumor Volume,[1]; week 0.6,0.28 cm3
same,Tumor Volume,[1]; week 1.1,0.24 cm3
same,Tumor Volume,[1]; week 1.6,0.04 cm3
same,Tumor Volume,[1]; week 2,0.01 cm3
same,Tumor Volume,[1]; week 2.6,0 cm3
same,Tumor Volume,[1]; week 3.1,0 cm3
same,Tumor Volume,[1]; week 3.6,0 cm3
same,Tumor Volume,[1]; week 4.1,0 cm3
same,Tumor Volume,[1]; week 4.6,0 cm3
same,Tumor Volume,[1]; week 5,0.05 cm3
same,Tumor Volume,[1]; week 5.6,0.32 cm3
same,Tumor Volume,[1]; week 6,0.41 cm3
same,Tumor Volume,[1]; week 6.6,1.05 cm3
same,Tumor Volume,[1]; week 7,0.73 cm3
same,Tumor Volume,[1]; week 7.6,0.34 cm3
same,Tumor Volume,[1]; week 8,0.16 cm3
same,Tumor Volume,[1]; week 8.6,0.03 cm3
same,Tumor Volume,[1]; week 9,0.07 cm3
same,Tumor Volume,[1]; week 9.6,0.07 cm3
same,Tumor Volume,[1]; week 10,0 cm3
same,Tumor Volume,[1]; week 10.6,0 cm3
same,Tumor Volume,[1]; week 11,0 cm3
same,Tumor Volume,[1]; week 11.6,0 cm3
same,Tumor Volume,[1]; week 12,0 cm3
same,Tumor Volume,[1]; week 12.6,0.02 cm3
same,Tumor Volume,[1]; week 13,0.06 cm3
same,Tumor Volume,[1]; week 13.6,0.34 cm3
same,Tumor Volume,[1]; week 14,0.98 cm3
same,EFS by AOC method,[2]; [5],14.1951 days and 16.6777 days
same,Tumor response (% growth from study initiation at ~ 200 mm3),[2]; [5],74.1936% and -21.7391%
same,EFS by AOC method,[2]; [6],27.6 days and 26.9 days and 27.5972 days and 26.9655 days
same,Tumor response (% growth from study initiation at ~ 200 mm3),[2]; [6],-80.7692% and -84.6154%
same,EFS by AOC method,[2]; [7],38.3761 days and 73.0746 days
same,Tumor response (% growth from study initiation at ~ 200 mm3),[2]; [7],-100% and -94.4444%
